Test results published in article PMC6886544.

What was measured:
FGFR1 = FGFR1 (Homo sapiens, UniProt P11362); test: SelectScreen kinase profiling, FGFR1; format: biochemical; conditions: mean ± SD of one measurement in duplicates
Experimental: (§1) Kinase profiling of compound 17a at a concentration of 1 µM generated with the SelectScreen® Profiling Service from Life Technologies.
(§2) Figure S2. Kinase profiling of compound 17a, Illustration as waterfall plot. 9 Kinases harboring a Cysteine isostructural to Cys797 in EGFR are highlighted
(§3) Kinase % inhibition Kinase % inhibition […]
(§4) aValues are the mean ± SD of one measurement in duplicates; bKinases harboring a Cysteine isostructural to Cys797 […]
(§5) (1 picture or pasted object on this page, not shown here)

FGR = FGR (Homo sapiens, UniProt P09769); test: SelectScreen kinase profiling, FGR; format: biochemical; conditions: mean ± SD of one measurement in duplicates
Chain of FGR (P09769 whole entry): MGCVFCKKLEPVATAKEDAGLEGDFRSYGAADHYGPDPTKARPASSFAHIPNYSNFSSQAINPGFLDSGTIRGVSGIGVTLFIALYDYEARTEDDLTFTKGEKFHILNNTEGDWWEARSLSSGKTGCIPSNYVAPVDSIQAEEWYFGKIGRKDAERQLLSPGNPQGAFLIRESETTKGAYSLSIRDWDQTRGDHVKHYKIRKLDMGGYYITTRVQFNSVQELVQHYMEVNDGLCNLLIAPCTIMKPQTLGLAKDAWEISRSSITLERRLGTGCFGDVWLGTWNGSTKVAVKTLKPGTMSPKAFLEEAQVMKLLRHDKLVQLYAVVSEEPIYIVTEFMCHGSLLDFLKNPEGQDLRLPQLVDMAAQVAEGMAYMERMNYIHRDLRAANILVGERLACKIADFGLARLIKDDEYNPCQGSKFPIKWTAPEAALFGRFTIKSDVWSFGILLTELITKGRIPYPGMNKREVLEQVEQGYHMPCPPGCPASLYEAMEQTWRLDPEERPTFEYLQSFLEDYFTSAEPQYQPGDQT
Experimental: as §1, §2, §3, §4, §5

[1] = In vivo pharmacokinetics in mice
Experimental: In vivo pharmacokinetics.
To determine the pharmacokinetics of 19h, totally 36 male RjOrl:SWISS (CD1) mice, age 8−10 weeks, body weight (bw) between 29 and 31 g, were purchased from Janvier, Saint-Berthevin Cedex, France. Mice were fed ad libitum with Allein-Futter für Ratten-/Mäusehaltung from Sniff Special Diets GmbH, Germany. They had free access to water and were kept in a 12 h day/night rhythm. All experiments were approved by the local authorities. Pharmacokinetics were studied for the oral (PO), intraperitoneal (IP), and intravenous (IV) route of administration. For the oral and […]
intraperitoneal routes, a stock solution of 2 mg/mL of 19h in a solution consisting of 10% of DMSO and to 90% of an aqueous solution of 30% 2-hydroxypropyl-β-cyclodextrin was prepared. To reach doses of 20 mg/kg bw, 300 μL were administered per 30 g of mouse bw. For the intravenous route of administration, a 2 mg/mL DMSO solution was prepared and 30 μL were applied to a 30 g mouse to reach a concentration of 2 mg/kg bw. Mice were sacrificed 5, 15, 45, and 135 min after administration of the test compound, and approximately 100 μL of blood was taken from the left heart chamber. Three mice were analyzed per time point and route of administration (PO, IP and IV), respectively. Immediately after sampling, blood was centrifuged at 16200g for 10 min at 4 °C and plasma was stored at -80 °C until LC/MS analysis of 19h. Prior to LC-MS/MS analysis, plasma proteins were precipitated with acetonitrile containing an internal standard, and samples were filtered. A calibration curve was obtained from spiked blank plasma samples. 19h was measured using a Shimadzu UPLC system connected to a QTrap 4000 hybrid triple quadrupole/linear ion trap mass spectrometer (AB Sciex). The regression equation of the calibration curve was used to calculate plasma concentrations. Pharmacokinetic parameters were calculated using the PKSolver software2.

[2] = male, RjOrl:SWISS (CD1), mouse, plasma, IP 20 mg kg-1
[3] = male, RjOrl:SWISS (CD1), mouse, plasma, IP 20 mg kg^–1
[4] = male, RjOrl:SWISS (CD1), mouse, plasma, IV 2 mg kg-1
[5] = male, RjOrl:SWISS (CD1), mouse, plasma, PO 20 mg kg-1

Chain of FGFR1 (P11362 22-822): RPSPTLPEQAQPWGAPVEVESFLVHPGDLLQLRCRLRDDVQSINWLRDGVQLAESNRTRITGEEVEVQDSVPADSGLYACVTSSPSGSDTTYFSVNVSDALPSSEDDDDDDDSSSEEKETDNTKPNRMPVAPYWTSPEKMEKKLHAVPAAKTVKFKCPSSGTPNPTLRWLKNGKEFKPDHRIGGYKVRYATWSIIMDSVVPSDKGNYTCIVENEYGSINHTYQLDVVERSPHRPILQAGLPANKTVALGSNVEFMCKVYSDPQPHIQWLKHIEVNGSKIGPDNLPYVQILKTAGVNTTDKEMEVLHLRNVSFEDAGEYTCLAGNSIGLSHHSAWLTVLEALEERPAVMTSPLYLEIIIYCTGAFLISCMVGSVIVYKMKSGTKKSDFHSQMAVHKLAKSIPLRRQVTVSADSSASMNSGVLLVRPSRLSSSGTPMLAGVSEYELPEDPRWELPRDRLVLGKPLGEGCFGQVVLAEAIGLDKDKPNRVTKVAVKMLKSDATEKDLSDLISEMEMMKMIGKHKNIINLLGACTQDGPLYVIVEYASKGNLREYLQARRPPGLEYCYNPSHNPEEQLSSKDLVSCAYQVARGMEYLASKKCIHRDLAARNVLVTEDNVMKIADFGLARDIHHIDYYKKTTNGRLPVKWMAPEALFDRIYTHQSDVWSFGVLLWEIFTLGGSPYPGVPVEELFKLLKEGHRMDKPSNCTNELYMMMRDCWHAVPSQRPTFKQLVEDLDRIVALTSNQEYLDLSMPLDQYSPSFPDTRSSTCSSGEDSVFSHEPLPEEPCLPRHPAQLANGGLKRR

Compound	inhibition at 1 µM (FGFR1) [%]	inhibition at 1 µM (FGR) [%]	F0-t ([1]; IP 20 mg kg-1) [%]	t1/2 ([1]; IP 20 mg kg-1) [h]	Cmax, free ([1]; IP 20 mg kg^–1) [µM]	F0-t ([1]; PO 20 mg kg-1) [%]	time blood plasma concentration maintained above in vitro EC50 in H1975 cells ([1]; after both IP and PO)	AUC(0-t) [1, 2] [ng·h/mL]	Cmax [1, 2] [ng/mL]	AUC [1, 3] [ng·h/mL]	Cmax [1, 3] [µM]	AUC(0-t) [1, 4] [ng·h/mL]	C0 [1, 4] [ng/mL]	clearance [1, 4] [mL/min/kg]	Vd ([1]; male, RjOrl:SWISS (CD1), mouse, plasma, IV 2 mg kg-1, read-out: Vss) [L/kg]	AUC(0-t) [1, 5] [ng·h/mL]	Cmax [1, 5] [ng/mL]	half-life ([1]; male, RjOrl:SWISS (CD1), mouse, plasma, ip, 20 mg/kg, IP 20 mg kg-1) [h]	half-life ([1]; male, RjOrl:SWISS (CD1), mouse, plasma, iv, 2 mg/kg, IV 2 mg kg-1) [h]
C=CC(=O)Nc1cccc(-c2c(-c3ccc(CN4CCN(C)CC4)cc3)[nH]c3ncnc(OC)c23)c1 [Compound 17a]	72 ± 4	92 ± 1																	
C=CC(=O)Nc1cccc(-c2c(-c3ccc(N4CCN(C)CC4)cc3)[nH]c3ncnc(OCC(C)C)c23)c1 [Compound 19h]			258	1.2	0.012	9	more than two hours	2870	1770	8.6	3.5	111	258	250	16	101	56	1.21	0.89
